{
  "source": "patent US10131664B2",
  "about": "(Celgene Quanticel Research, Inc., priority 2013, dated 2018)",
  "key": {"full-length human LSD1": {"biological_target": "full-length human LSD1 (Homo sapiens (Human), UniProt O60341)", "test": "In vitro enzyme inhibition assay LSD-1 (TR-FRET)", "type": "biochemical", "details": "TR-FRET, 0.1 nM LSD1, 50 nM H3K4me1-biotin peptide, 2 μM FAD, pH7.3; read-out: LSD1 IC50", "protocol": "This assay determines the ability of a test compound to inhibit LSD1 demethylase activity.\nThe enzymatic assay of LSD1 activity is based on Time Resolved-Fluorescence Resonance Energy Transfer (TR-FRET) detection.\nThe ability of the compounds disclosed herein to inhibit LSD1 activity was quantified and the respective IC50 value was determined. Table 5 provides the IC50 values of various substituted heterocyclic compounds disclosed herein."}, "THP-1 (AML) cells": {"system": "THP-1 (AML) cells", "test": "LSD1 CD11b cellular assay (flow cytometry)", "type": "cell-based", "details": "Homo sapiens, 96 h; CD11b expression in THP-1 (AML) cells, flow cytometry, 4 days incubation; read-out: Cellular IC50", "outline": "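THP-1 AML cells treated with serially diluted compound (0.2% DMSO final) for 4 days at 37 °C, 5% CO2. CD11b expression measured by flow cytometry with DAPI staining; IC50 derived from percent CD11b-positive cells versus inhibitor concentration.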"}},
  "data": [
    {"smiles": "CNc1nc(N2CCC(N)CC2)nc(-c2ccc(C#N)cc2)c1-c1cnn(CC(F)(F)F)c1", "note": "[Example 174, 4-[2-(4-aminopiperidin-1-yl)-6-(methylamino)-5-[1-(2,2,2-trifluoroethyl)-1H-pyrazol-4-yl]pyrimidin-4-yl]-benzonitrile]", "values": [
      {"measurement": "IC50", "setting": "full-length human LSD1", "value": "< 100", "unit": "nM"},
      {"measurement": "IC50", "setting": "THP-1 (AML) cells", "value": "< 100", "unit": "nM"}
    ]},
    {"smiles": "CNc1nc(N2CCC(N)CC2)nc(-c2ccc(C#N)c(F)c2)c1-c1cnc2c(cnn2C)c1", "note": "[Example 175, 4-[2-(4-aminopiperidin-1-yl)-5-{1-methyl-1H-pyrazolo[3,4-b]pyridin-5-yl}-6-(methylamino)pyrimidin-4-yl]-2-fluorobenzonitrile]", "values": [
      {"measurement": "IC50", "setting": "full-length human LSD1", "value": "< 100", "unit": "nM"},
      {"measurement": "IC50", "setting": "THP-1 (AML) cells", "value": "< 100", "unit": "nM"}
    ]},
    {"smiles": "CNc1nc(N2CCC(N)CC2)nc(-c2ccc(C#N)cc2)c1-c1cnc2c(c1)nnn2C", "note": "[Example 176, 4-[2-(4-aminopiperidin-1-yl)-5-{3-methyl-3H-[1,2,3]triazolo[4,5-b]pyridin-6-yl}-6-(methylamino)pyrimidin-4-yl]benzonitrile]", "values": [
      {"measurement": "IC50", "setting": "full-length human LSD1", "value": "< 100", "unit": "nM"},
      {"measurement": "IC50", "setting": "THP-1 (AML) cells", "value": "< 100", "unit": "nM"}
    ]},
    {"smiles": "CNc1nc(N2CC[C@@H](N)[C@@H](F)C2)nc(-c2ccc(C#N)cc2)c1-c1ccc2nn(C)cc2c1", "note": "[Example 177, 4-{2-[(3S,4R)-4-amino-3-fluoropiperidin-1-yl]-5-(2-methyl-2H-indazol-5-yl)-6-(methylamino)pyrimidin-4-yl}benzonitrile]", "values": [
      {"measurement": "IC50", "setting": "full-length human LSD1", "value": "< 100", "unit": "nM"},
      {"measurement": "IC50", "setting": "THP-1 (AML) cells", "value": "< 100", "unit": "nM"}
    ]},
    {"smiles": "CNc1nc(N2CC[C@H](N)[C@H](F)C2)nc(-c2ccc(C#N)cc2)c1-c1ccc2nn(C)cc2c1", "note": "[Example 178, 4-{2-[(3R,4S)-4-amino-3-fluoropiperidin-1-yl]-5-(2-methyl-2H-indazol-5-yl)-6-(methylamino)pyrimidin-4-yl}benzonitrile]", "values": [
      {"measurement": "IC50", "setting": "full-length human LSD1", "value": "< 100", "unit": "nM"},
      {"measurement": "IC50", "setting": "THP-1 (AML) cells", "value": "< 100", "unit": "nM"}
    ]}
  ]
}
